# Where two headings read alike, the source gives them in different places.
# Assays:
# SW480 = test: Cytotoxicity (MTT) under normoxia, SW480; format: cell-based; settings: Homo sapiens, SW480, read-out: IC50 SW480
# Experimental: (§1) The cytotoxicity of the compounds 5a–c and their parent alkaloids was evaluated by the 3-[4,5-dimethylthiazole-2-yl]-2,5-diphenyltetrazolium bromide (MTT) assay against 5 cancerous and 2 non-cancerous cell lines (Table 4).
# (§2) The eight cell lines HEK293 (Human embryonic kidney 293), CHO-K1 (Chinese hamster ovary K1), MCF-7 cells (Human breast adenocarcinoma), HCT116 (human colorectal carcinoma), RKO (Human rectal carcinoma), SW480 (human colorectal carcinoma), H460 (Human lung cancer), and MRC5 (Normal human foetal lung fibroblast), were obtained from the ATCC. The cell lines were routinely grown in alpha minimum essential medium (α-MEM) containing 5% foetal calf serum (FCS). The appropriate number of cells (HCT116 = 400 cells/well, H460 cells = 600 cells/well) were seeded into 96-well plates under normoxic or hypoxic conditions. Cells were plated in 100 µL α-MEM containing 10% FCS, 10mM D-Glucose and 0.2mM 2′-deoxycytidine. After incubation for 2 h, the compounds were added at the appropriate concentration and incubated for further 4 h. The cells were then washed three times with drug-free α-MEM (containing 5% FCS and pen/strep). The plates were then incubated for 5 days under normoxic conditions. The cells were stained with sulphorhodamine B to measure total cells. The IC50 was determined by interpolation as the compound concentration reducing staining to 50% of controls on the same plate.
# HCT116 [1] = test: Cytotoxicity (MTT) under normoxia, HCT116; format: cell-based; settings: Homo sapiens, HCT-116, read-out: IC50 HCT116
# Experimental: as §1, §2
# MRC5 = test: Cytotoxicity (MTT) under normoxia, MRC5; format: cell-based; settings: Homo sapiens, MRC5, read-out: IC50 MRC5
# Experimental: as §1, §2
# MCF7 = test: Cytotoxicity (MTT) under normoxia, MCF7; format: cell-based; settings: Homo sapiens, MCF7, read-out: IC50 MCF7
# Experimental: as §1, §2
# H460 = test: Cytotoxicity under normoxia and hypoxia (anaerobic chamber, sulphorhodamine B), H460; format: cell-based, human; settings: for IC50: 4 h exposure, 5 days growth
# Experimental: (§3) We also checked if the designed prodrugs were able to liberate the active alkaloids in hypoxic tumors by testing them under hypoxic conditions using an anaerobic chamber. The three prodrugs 5a–c and their parent alkaloids as well as the reference compounds PR-104A, the parent alcohol form of the phosphate pre-prodrug PR-104, and evofosfamide were tested using the HCT116 and H460 cell lines under both normoxic and hypoxic conditions (Table 5). The prodrugs were much less cytotoxic than the parent drugs, in agreement with our observations using the other cell lines described above (Figure 6).
# (§4) The extent to which a prodrug is deactivated relative to its parent drug under normoxic conditions is defined as the Deactivation Ratio (DR). The DR can be simply calculated as DR = IC50 (prodrug)/IC50 (parent drug).
# (§5) The efficacy of prodrug activation under hypoxic conditions can be expressed by the Hypoxia Cytotoxicity Ratio (HCR), which can be calculated for a given prodrug as: HCR = normoxic IC50/hypoxic IC50.
# as §2
# RKO = test: Cytotoxicity (MTT) under normoxia, RKO; format: cell-based; settings: Homo sapiens, read-out: IC50 RKO
# Experimental: as §1, §2
# HCT116 [2] = test: Cytotoxicity under normoxia and hypoxia (anaerobic chamber, sulphorhodamine B), HCT116; format: cell-based, human; settings: for IC50: 4 h exposure, 5 days growth
# Experimental: as §3, §4, §5, §2
# LogD determination = format: physicochemical; settings: mean ± SE
# Experimental: (§6) Water solubility, logD, and PAMPA-BBB were evaluated using the protocols we previously described.
# [3] = Solubility in PBS (pH 7.4); format: physicochemical; settings: aqueous buffer, mean ± SE
# Experimental: as §6
# [4] = Human plasma stability test; format: in vitro ADME; settings: 37 °C, up to 24 h, read-out: t1/2 (Human Plasma) (converted)
# Experimental: (§7) Incubations were carried out in 6 aliquots of 70 μL each in duplicates. […] The reactions were stopped by adding 350 μL of acetonitrile with subsequent plasma proteins sedimentation by centrifuging at 5500 rpm for 5 min. Supernatants were analyzed by LC-MS using Shimadzu VP HPLC system including vacuum degasser, gradient pumps, reverse phase column, column oven and autosampler. The HPLC system was coupled with tandem mass spectrometer API 3000 (PE Sciex, Foster City, CA, USA). Both the positive and negative ion modes of the TurboIonSpray ion source were used. The acquisition and analysis of the data were performed using Analyst 1.5.2 software (PE Sciex, API 3000 mass spectrometer, Foster City, CA, USA). The percentage of the test compounds remaining after incubation in plasma and their half-lives (T1/2) were calculated.
# [5] = Mouse plasma stability test; format: in vitro ADME; settings: 37 °C, up to 24 h, read-out: t1/2 (Mouse Plasma) (converted)
# Experimental: as §7
# [6] = BBB-Parallel Artificial Membrane Permeability Assay (BBB-PAMPA); format: in vitro ADME; settings: mean ± SE
# Experimental: The physicochemical properties of the new compounds were evaluated (Table 1). […] Consequently, these derivatives lost their BBB penetrability, as predicted by the BBB-Parallel Artificial Membrane Permeability Assay (BBB-PAMPA), whereas their parent alkaloids had free passage through the BBB.
# as §6
# [7] = Homo sapiens, NCI-H460, H460, hypoxia, read-out: IC50 (Hypoxia)
# [8] = Homo sapiens, NCI-H460, H460, normoxia, read-out: IC50 (Normoxia)
# [9] = Homo sapiens, HCT-116, HCT116, hypoxia, read-out: IC50 (Hypoxia)
# [10] = Homo sapiens, HCT-116, HCT116, normoxia, read-out: IC50 (Normoxia)
# [11] = H460, HCR = normoxic IC50/hypoxic IC50
# [12] = HCT116, HCR = normoxic IC50/hypoxic IC50
structure (smiles),measurement,setting,value
"COc1cc2c3c(c4cc(OC)c(OC)cc4c2cc1OC)C[N+]1(Cc2c([N+](=O)[O-])ncn2C)CCC[C@@H]1C3.[Br-] (stereo partly drawn) [Compound 5c, (13aR)-2,3,6,7-tetramethoxy-10-((1-methyl-4-nitro-1H-imidazol-5-yl)methyl)-10,11,12,13,13a,14-hexahydro-9H-dibenzo[f,h]pyrrolo[1,2-b]isoquinolin-10-ium bromide]",IC50,SW480,9.86 ± 1.69 µM
same,IC50,HCT116 [1],9.02 ± 1.13 µM
same,melting point,,185 to 187 °C
same,IC50,MRC5,3.94 ± 0.127 µM
same,IC50,MCF7,8.05 ± 0.343 µM
same,HCR (Hypoxia Cytotoxicity Ratio),H460,7.8
same,DR (Deactivation Ratio),"H460; H460, normoxia, DR = IC50 (prodrug)/IC50 (parent drug)",293
same,IC50,H460; [7],6.5 ± 1.81 µM
same,IC50,H460; [8],51 µM
same,IC50,RKO,8.82 ± 3.08 µM
same,HCR (Hypoxia Cytotoxicity Ratio),HCT116 [2],1.5
same,DR (Deactivation Ratio),"HCT116 [2]; HCT116, normoxia, DR = IC50 (prodrug)/IC50 (parent drug)",128
same,IC50,HCT116 [2]; [9],3.02 ± 0.656 µM
same,IC50,HCT116 [2]; [10],9.05 ± 7.59 µM
Cn1c(COP(=O)(NCCBr)NCCBr)cnc1[N+](=O)[O-] [Evofosfamide],HCR (Hypoxia Cytotoxicity Ratio),H460; [11],251
same,IC50,H460; [7],0.0172 ± 0.001 µM
same,IC50,H460; [8],4.32 ± 1.93 µM
same,HCR (Hypoxia Cytotoxicity Ratio),HCT116 [2]; [12],85
same,IC50,HCT116 [2]; [9],0.0201 ± 0.003 µM
same,IC50,HCT116 [2]; [10],0.0239 ± 0.007 µM
COC(=O)Nc1nc2ccc(C(=O)c3ccccc3)cc2[nH]1 [Mebendazole],logD,LogD determination,3.26 ± 0.01
Cc1nccn1CC1CCc2c(c3ccccc3n2C)C1=O (stereo not shown) [Ondansetron],solubility,[3],96 ± 3 µM
CS(=O)(=O)OCCN(CCBr)c1c(C(=O)NCCO)cc([N+](=O)[O-])cc1[N+](=O)[O-] [PR-104A],IC50,"H460; H460, hypoxia, read-out: IC50 (Hypoxia)",0.533 ± 0.047 µM
same,IC50,"H460; H460, normoxia, read-out: IC50 (Normoxia)",1.34 ± 0.386 µM
same,HCR (Hypoxia Cytotoxicity Ratio),H460; [11],2.5
same,IC50,"HCT116 [2]; HCT116, hypoxia, read-out: IC50 (Hypoxia)",0.861 ± 0.122 µM
same,IC50,"HCT116 [2]; HCT116, normoxia, read-out: IC50 (Normoxia)",16.5 µM
same,HCR (Hypoxia Cytotoxicity Ratio),HCT116 [2]; [12],10.5
CC(C)[N+](C)(CCOC(=O)C1c2ccccc2Oc2ccccc21)C(C)C [Propantheline],half-life at 1 μM,[4],< 3 h
same,half-life at 1 μM,[5],< 3 h
CNC(=C[N+](=O)[O-])NCCSCc1ccc(CN(C)C)o1 [Ranitidine],Permeability (Papp),[6],<−7 Log [10^−6 cm/s]
